Test results: patent US9328142B2, “Lipopeptide inhibitors of RAS oncoproteins” (The United States of America, as represented by The …, priority 2011, dated 2016)

Assays:
[1] = tested on: A549 human lung cancer cell line harboring constitutively active Ras mutant; assay: MTT growth inhibition assay, A549; assay type: cell-based; details: A549, MTT
Procedure: MCF-7 (breast cancer), T47D (breast cancer), Colo 205 (colon cancer), JM-1 (rat hepatoma), Sk Mel-2 (melanoma), PLC (human hepatoma), and HepG2 (human hepatoma) were obtained from American Type Cell Culture Collection. MCF-7 cells were grown in RPMI medium supplemented with 10% Fetal Bovine Serum. The remaining cell lines were grown in DMEM medium supplemented with 10% Fetal Bovine Serum. For the assay, cells were seeded into 96 well plates in medium containing 1% Fetal Bovine Serum and 100 μL of a cell suspension containing 5000 cells per well were used for each well. Cell growth was evaluated utilizing MTT ((3-(4,5-Dimethylthiazol-2-yl)-2,5-diphenyltetrazolium). The absorbance of the wells at 544 nm was determined by a FLUOstar/POLARstar Galaxy (BMG Lab Technologies GmbH) microplate reader.
The growth inhibitory activity of compounds was compared using the A549 human lung cancer cell line harboring constitutively active G12D Ras mutant with the help of an MTT assay. […] Stepwise extensions and truncations confirmed that the peptide had the optimal length (see Table 1).
The growth inhibitory activity of compounds was compared using the A549 human lung cancer cell line harboring constitutively active G12D Ras mutant with the help of an MTT assay.

[2] = tested on: DPPC bilayers containing 5% DPPE stabilized by MSP1 scaffold protein (nanodiscs); assay: SPR membrane binding to phospholipid bilayer nanodiscs
Procedure: Dipalmitoylphosphatidylcholine (DPPC) bilayers containing 5% dipalmitoyldiphosphatidylethanolamine (DPPE) stabilized by MSP1 scaffold protein were prepared. […] The preparation procedure involved mixing DPPC lipids with MSP1 at a 90:1 molar ratio in the presence of 100 mM cholate. Cholate was removed by slow dialysis. The assembled nanodiscs were purified by size-exclusion chromatography on a calibrated Superdex 200 column and immobilized on a surface plasmon resonance (SPR) sensor chip.
The presence of a primary amine group in DPPE provided a convenient site for cross-linking of nanodiscs to an SPR sensor chip. The noncross-linked dextran in the sample and reference cells was blocked by the coupling reagent. Four different peptides were used to study membrane binding by SPR. […] The HVR peptide lacks post-translational modifications present in K-Ras4B. The second peptide is the HVR peptide conjugated to S-farnesyl L-cysteine methyl ester via a bifunctional cross-linker Sulfosuccinimidyl-4-(N-maleimidomethyl)cyclohexane-1-carboxylate (Sulfo-SMCC) (Pierce). The other two peptides were kR-4A-C1 and kR-4B-C1.
In this situation determination of true dissociation constants was not feasible. Instead, the data were analyzed using the Hill equation. The Hill coefficient describes the degree of binding cooperativity.

[3] = tested on: HCC15 cells; assay: Wound closure assay; assay type: cell-based
[4] = tested on: HCC15 cells; assay: Cell migration, Boyden Chambers; assay type: cell-based; details: IC25 concentration
Procedure: (§1) The rate of migration and invasion was determined using Boyden Chambers (Millipore) in accordance with the manufacturer's protocol.

[5] = tested on: HCC15 cells; assay: Cell invasion, Boyden Chambers; assay type: cell-based; details: IC25 concentration
Procedure: Cell invasion assays were performed using the BD Biocoat Matrigel Invasion Chambers in accordance with the manufacturer's protocol. Cells (1×10^5/mL) were seeded onto 12-well cell culture chamber using inserts with 8 μm pore size polycarbonate membrane over a thin layer of Matrigel Basement Membrane Matrix without phenol red (BD Biosciences) diluted at 1:100 in PBS. Following incubation of the plates for 48 hours at 37° C., cells that invaded through the Matrigel and migrated to the lower surface of the membrane were stained with Giemsa solution, counted under the microscope in at least 10 different fields, and photographed. Three wells were examined for each condition and cell type, and the experiments were repeated in triplicate.
as §1

[6] = tested on: activated (GTP-bound) Ras in H358 human lung cancer cells; assay: Raf-RBD pull-down of active (GTP-bound) Ras; assay type: cell-based; details: 5 μM, varying exposure times
Procedure: H358 human lung cancer cells were grown in 6-well plates in DMEM medium containing 10% FBS. When the cells were about 70% confluent, the medium was replaced with DMEM containing 1% FBS. Two hours later, Ras inhibitors (kR-H6-48, HR-1, kR-4A-4, or kR-4B-2) were added to provide a final concentration of 5 μM.
After varying exposure times, the cells were rinsed with PBS and lysed. The lysates were cleared by centrifugation, incubated with immobilized Raf-RBD beads (which bind Ras) and analyzed by Western blot using manufacturer's protocols (Cytoskeleton, Inc., Denver, Colo.; Catalog No. BK008). The bands corresponding to active (GTP-bound) Ras were quantified with the help of MIPAV software.

[7] = tested on: Ras-dependent cancer cells (H358, SKBR3, SKOV3, ID8, MPR-178); assay: MTT growth assay on Ras-dependent cancer cells; assay type: cell-based, human, murine; details: 48 hours, 1% FBS
Procedure: Ras-dependent cancer cells (H358 human lung cancer cells, SKBR3 human breast cancer cells, SKOV3 human ovarian cancer cells, ID8 murine ovarian cancer cells, and MPR-178 murine prostate cancer cells) were grown in DMEM medium containing 1% FBS and exposed to varying concentrations of Ras inhibitors (kR-H6-48 and HR-1) for 48 hours. Cell growth was evaluated utilizing an MTT ((3-(4,5-Dimethylthiazol-2-yl)-2,5-diphenyltetrazolium) assay. The absorbance of the wells at 544 nm was determined by a FLUOstar/POLARstar Galaxy (BMG Lab Technologies GmbH, Ortenberg, Germany) microplate reader. The assays were performed on untreated (control) and test cells. Cellular responses were calculated from the data using the following formula: 100×[(T−T0)/(C−T0)] for T>T0 and 100×[(T−T0)/T0] for T<T0, wherein T0 corresponds to cell density at the time of drug addition.

Substance | GI50 ([1]; Table 1 helix 6 derivatives) [nM] | also measured
Pal-e-KAFYTLVRQIRQYRL [kR-H6-28] | 250 ± 50 | 
Lau-WQRVQRVLTYF (all D) [kR-H6-44] | 1 ± 1 | 
Ac-KEKLNSKDGKKKKKKSKTKK-e-Pal [kR-4B-1] |  | GI50 ([1]; Table 2 HVR derivatives): 1450 nM; cooperative interactions with membrane lipids ([2]; phospholipid bilayers): showed the best cooperative interactions with membrane lipids; cell motility (average closure) [3]: inhibition of HCC15 cell motility; cell migration (average number of cells migrated) [4]: inhibition of NCC15 cell migration; cell invasion (average number of cells migrated) [5]: inhibition of HCC15 cell invasion
Pal-RYQRIQRVLTYFA (all D) [kR-H6-19] | > 1000 | 
Ac-YQRIQRVLTYFAK-e-Pal (all D) [kR-H6-33] | 4.5 ± 1 | 
HVR peptide: represents the hypervariable region of K-Ras-4B, residues 165 through 183; lacks post-translational modifications (QYRLKKISKEEKTPGCVKI; K-Ras4B; UniProt P01116 165-183, looked up, fragment) [reference compound] |  | Hill coefficient (membrane binding cooperativity) ([2]; Hill equation): 1.106±0.001
Pal-YQRKQRVLTYF (all D) [kR-H6-14] | 40 | 
Ac-YQRIQRVLTYFK-e-Pal (all D) [kR-H6-11] | 10 | 
Cap-YQRVQRVLTYF (all D) [kR-H6-49] | 0.8 | 
Pal-e-KFYTLVREIRQYR [kR-H6-12] | 180 | 
Pal-KTKSKKKKK-NH2 All-D [kR-4B-6] |  | GI50 ([1]; Table 2 HVR derivatives): 1700 nM
Ac-KLNSKDGKKKKKKSKTKK-e-Pal [kR-4B-2] |  | GTP-bound Ras (fraction of control) [6]: reduction in activated (GTP-bound) Ras
Ac-YQRKQRVLTYFK-e-Pal (all D) [kR-H6-13] | 60 | 
Lau-YKRVQRVLTYF (all D) [kR-H6-42] | 300 ± 50 | 
Pal-Aib-YQRIQRVLTYF (all D) [kR-H6-35] | 450 ± 50 | 
Pal-YQRIQRVLTYF (all D) [kR-H6-34] | 18 ± 5 | 
Ac-ESGPGLNLNSLNKK-e-Pal [HR-1] |  | GI50 ([1]; Table 2 HVR derivatives): 250 nM; GTP-bound Ras (fraction of control) [6]: reduction in activated (GTP-bound) Ras; growth of Ras-dependent cancer cells (cell number, percent of control) [7]: growth inhibition of Ras-dependent cancer cells
Cap-YQRVQRVLTYW (all D) [kR-H6-41] | 180 ± 40 | 
Lau-YQRVQRVLTYFA (all D) [kR-H6-47] | 1 ± 1 | 
Ac-DGTQGLNLNGLPK-e-Pal [NR-1] |  | GI50 ([1]; Table 2 HVR derivatives): > 10000 nM
Ac-AFYTLVREIRQYR [kR-H6-17] | > 5000 | 
Ac-RLKKISKEEKTPGSVKIKKK-e-Pal [kR-4A-1] |  | GI50 ([1]; Table 2 HVR derivatives): 3100 nM; cell motility (average closure) [3]: inhibition of HCC15 cell motility; cell migration (average number of cells migrated) [4]: inhibition of NCC15 cell migration; cell invasion (average number of cells migrated) [5]: inhibition of HCC15 cell invasion
Pal-YQRIQRVLTYFA (all D) [kR-H6-21] | 30 | 
Ac-GLNVKIKKK-e-Pal [kR-4A-8] |  | GI50 ([1]; Table 2 HVR derivatives): > 10000 nM
Pal-e-KAFYTLVREIRKHK [kR-H6-18] | > 1000 | 
Lau-YQRVQRVLTYW (all D) [kR-H6-39] | 90 ± 15 | 
Pal-e-KAFYTLVREIRQYRL [kR-H6-27] | 280 ± 30 | 
